Measurements from patent publication US20040229821A1, “Orally administrable pharmaceutical compositions and methods for preventing food-drug interaction” (priority 2003, published 2004).
pIC50: −log10 of the molar value. Like-named read-outs stand apart in the source and are kept apart here.

What was measured:
trypsin [1] = target: T1, trypsin (Bos taurus, UniProt P00760); assay: Activity (IC50) on trypsin; assay type: biochemical; details: stated in words
T1 construct: gene PRSS1
T1 sequence (P00760 24-246): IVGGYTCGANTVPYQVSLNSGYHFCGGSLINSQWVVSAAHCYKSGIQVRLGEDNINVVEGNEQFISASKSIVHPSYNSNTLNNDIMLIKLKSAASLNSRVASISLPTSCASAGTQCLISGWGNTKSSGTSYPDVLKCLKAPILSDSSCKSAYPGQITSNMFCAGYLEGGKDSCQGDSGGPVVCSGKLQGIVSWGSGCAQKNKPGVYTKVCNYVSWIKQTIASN
From the text: (§1) Other oral thrombin inhibitors under development than Drug A have been reported to show changes of bioavailability by food intake. […] The above two substances have different activities not only on thrombin but also on trypsin. […] In other words, the bioavailability of S18326 with higher activity on trypsin was more affected by food intake than S31922. […] Its activity on trypsin has not yet been reported, but since it is an ariginine (Arg) derivative like S18326, it is anticipated to have high activity on trypsin. […] The bioavailability of melagatran is affected by food intake because it has a charge in the intestinal pH, and so its membrane permeability is decreased [D. Gustafsson et al., The direct thrombin inhibitor melagatran and its oral prodrug H376/95: Intestinal absorption properties, biochemical and pharmacodynamic effects, Thrombosis Res., 101(2001) 171-181]. In order to improve the decreased membrane permeability, its prodrug was prepared and confirmed to have improved bioavailability and to prevent the bioavailability variance by food intake. However, melagatran is also one in the series of strong basic group, amidine, and thus has a strong inhibitory effect on trypsin.

[2] = Pharmacokinetic test of Drug A in dogs, empty stomach vs after food intake; assay type: in vivo; details: oral
From the text: as §1
Drug A is an orally active thrombin inhibitor, and is effective for preventing or treating the formation of thrombus. […]

[3] = Pharmacokinetic test of Drug A in rats, empty stomach vs after food intake; assay type: in vivo; details: oral, absorbed well on an empty stomach
From the text: as §1

thrombin = thrombin (Homo sapiens, UniProt P00734); details: cited from earlier work
[4] = dogs, oral; cited from earlier work
trypsin [5] = target: T1, trypsin; details: cited from earlier work
[6] = humans, oral; cited from earlier work
[7] = rats, oral; cited from earlier work

| Molecule | pIC50 (thrombin) | Bioavailability after food intake [4] [%] | Bioavailability on an empty stomach [4] [%] | pIC50 (trypsin [5]) | Change of bioavailability after food intake [6] | further results |
| --- | --- | --- | --- | --- | --- | --- |
| N=C(N)c1ccc(CNC(=O)[C@@H]2CCCN2C(=O)[C@H](NCC(=O)O)C(c2ccccc2)c2ccccc2)s1 [Drug A, (2S)-N-{5-[amino(imino)methyl]-2-thienyl}methyl-1-{(2R)-2-[(carboxymethyl)amino]-3,3-diphenylpropanoyl}-2-pyrrolidinecarboxamide] |  |  |  |  |  | Activity on the digestive enzyme trypsin (trypsin [1]): high activity; Bioavailability after food intake relative to empty stomach ([2]; dog, in vivo, solution of Drug A, read-out: Bioavailability after food intake compared with on an empty stomach): 10%; Change of bioavailability when administered after food intake ([2]; absorbed well on an empty stomach): remarkably decreased; Change of bioavailability when administered after food intake [3]: remarkably decreased |
| CC(=O)N[C@H](Cc1ccccc1)C(=O)N(CC(=O)N[C@@H](CCCN=C(N)N)B(O)O)C1CCCC1 [Example S-18326] | 8.44 | 6 | 27 | 7.70 |  |  |
| NCCCCC(NC(=O)C1(C(=O)NCCc2ccccc2)CCCC1)B(O)O (stereo not drawn) [Example S-31922] | 7.37 | 22 | 36 | 6.47 |  |  |
| N=C(N)c1ccc(CNC(=O)[C@@H]2CCN2C(=O)[C@H](NCC(=O)O)C2CCCCC2)cc1 [melagatran] |  |  |  |  | remarkably decreased |  |
| R-Piq-Pro-Arg-H |  |  |  |  | remarkably decreased | Change of bioavailability after food intake [7]: remarkably decreased |
